Test results reported in publication PMC12022903, “Evaluation of drug-drug interaction between Suraxavir Marboxil (GP681) and itraconazole, and assessment of the impact of gene polymorphism” (Frontiers in Pharmacology, 2025).
“And” between values parts separate entries of the source, which are not always exact repeats. Identical values can stand only once.

Assay: Pharmacokinetic parameters of GP1707D07 (HPLC-MS/MS, non-compartmental) in the GP681-itraconazole drug-drug interaction study
Type: in vivo, healthy Chinese subjects
Settings: for Cmax / MRT0-t / MRT0-∞ / Tmax / Vz/F / t1/2 / λz / AUC0-t / AUC0-∞ / AUC_%Extrap / CL/F: Period 2, GP681 20 mg + itraconazole
Protocol: This single-center, open-label, self-controlled, fixed-sequence study, sponsored by Qingfeng Pharmaceutical Group Co., Ltd., was conducted at a single clinical research site in the China–Japan Friendship Hospital (Beijing, China). Each subject received the following treatment: Suraxavir Marboxil (GP681) 20 mg in the fasted state on day 1 and day 26. Itraconazole capsules (Sporanox®: Xi’an Yangsen Pharmaceutical Co., Ltd., China) 0.2 g twice daily (BID, bis in die) on day 22. Itraconazole 0.2 g daily from day 23 to day 36 [including day 26, when itraconazole was co-administrated with Suraxavir Marboxil (GP681)]. The washout period is 21 days (Figure 2). It should be noted that in the following sections, when discussing the PK profile, this study was divided into Period 1 (Suraxavir Marboxil (GP681) monotherapy, from day −1 to day 12), and Period 2 (Suraxavir Marboxil (GP681)-itraconazole co-administration, from day 21 to day 36). When discussion the safety profile, this study was divided into Stage 1 (Suraxavir Marboxil (GP681) monotherapy stage, from day 1 to day 21), Stage 2 (itraconazole monotherapy stage, from day 22 to day 25), and Stage 3 (Suraxavir Marboxil (GP681)-itraconazole co-administration stage, from d 26 to d 36).
Blood samples were collected at the following time points: pre–dose, 0.5, 1, 2, 3, 4, 5, 6, 8, 12, 24, 36, 48, 72, 120, 168, and 264 h post-dose on day 1 and day 26. In addition, a blood sample were collected before dosing on day 1 for genetic polymorphism assessment.
A validated high-performance liquid chromatography-tandem mass spectrometry (HPLC-MS/MS) method was used to determine plasma concentrations of Suraxavir Marboxil (GP681) and its active metabolite GP1707D07 at different times, with the quantification range of 0.3/0.3–300/300 ng/mL for Suraxavir Marboxil (GP681) and GP1707D07. The lower limit of quantification (LLOQ) for both compounds was 0.300 ng/mL. Phoenix® WinNonlin® 8.3 was used to estimate and analyze the pharmacokinetic parameters of non-compartmental model from plasma concentration data. Pharmacokinetic parameters included: maximum plasma concentration (Cmax), area under the plasma concentration-time curve extrapolated from time zero to infinity (AUC0- ∞ ), time to Cmax (Tmax), half-life (t1/2), λz, AUC_%Extrap, Vz/F, CL/F, and mean residence time (MRT).
Statistical analysis was performed using SAS (version 9.4 or above) software programming. Pharmacokinetic concentration analysis was based on Pharmacokinetic Analysis Concentration Set (PKCS). Individual and mean concentrations (mean ± SD) were plotted against planned blood sampling time points for the analyte on linear and semi-log scales. Pharmacokinetic parameter analysis was based on Pharmacokinetic Analysis Parameter Set (PKPS). Drug interaction analysis was based on Drug Interaction Set (DIS). The geometric mean ratios and their 90% confidence intervals of pharmacokinetic parameters Cmax, AUC0-t, and AUC0- ∞ under Suraxavir Marboxil (GP681) single dose and Suraxavir Marboxil (GP681)-itraconazole co-administration conditions were calculated after natural logarithm transformation, using a linear mixed effects model with subjects as random effects and treatment (combined/single) as fixed effects.
1.3 Pharmacokinetic Sample Collection and Processing: Pharmacokinetic Analysis: Approximately 4 mL of blood is collected each time into a tube containing sodium fluoride/potassium oxalate as an anticoagulant. The tube is then placed upright in an ice-water bath. The plasma samples are separated by centrifugation for the detection of GP681/GP1707D07 blood drug concentrations. Both sample collection and processing are conducted under white light conditions. […]

[1] = mean (SD), N = 4 (8 subjects with %AUCextrap >20% not included)

O=C1c2c(O)c(=O)ccn2N([C@@H]2c3ccccc3SCc3c2ccc(F)c3F)[C@@H]2COC3(CC3)CN12 [GP1707D07]
Cmax (geometric mean, N=12): 22.0 ng/mL and 22.0359 ng/mL
MRT0-t (geometric mean, N=12): 91.828 h
MRT0-∞ (geometric mean, N=12): 170.5 h and 170.494 h
Tmax (geometric mean, N=12): 4.4 h
Vz/F (geometric mean, N=12): 1365.672 L
t1/2 (geometric mean, N=12): 125.561 h
λz (geometric mean, N=12): 0.0055 h⁻¹
AUC0-t (individual subjects): 2991.14 ng·h/mL and 2032.39 ng·h/mL and 1353.85 ng·h/mL and 2127.20 ng·h/mL and 1044.79 ng·h/mL and 2764.96 ng·h/mL and 1661.62 ng·h/mL and 2484.54 ng·h/mL and 2488.27 ng·h/mL and 2757.79 ng·h/mL and 1586.83 ng·h/mL and 2524.54 ng·h/mL and 2991.1 ng·h/mL and 2032.4 ng·h/mL and 1353.9 ng·h/mL and 1044.8 ng·h/mL and 2765.0 ng·h/mL and 1661.6 ng·h/mL and 2484.5 ng·h/mL and 2488.3 ng·h/mL and 2757.8 ng·h/mL and 1586.8 ng·h/mL and 2524.5 ng·h/mL
AUC0-∞ (individual subjects): 4071.31 ng·h/mL and 2952.73 ng·h/mL and 1815.81 ng·h/mL and 2809.94 ng·h/mL and 1322.58 ng·h/mL and 3386.84 ng·h/mL and 1943.92 ng·h/mL and 3038.12 ng·h/mL and 3010.01 ng·h/mL and 3496.61 ng·h/mL and 2164.09 ng·h/mL and 3287.23 ng·h/mL
AUC_%Extrap (individual subjects): 26.53% and 31.17% and 25.44% and 24.30% and 21.00% and 18.36% and 14.52% and 18.22% and 17.33% and 21.13% and 26.67% and 23.20%
CL/F (individual subjects): 4.91 L/h and 6.77 L/h and 11.01 L/h and 7.12 L/h and 15.12 L/h and 5.91 L/h and 10.29 L/h and 6.58 L/h and 6.64 L/h and 5.72 L/h and 9.24 L/h and 6.08 L/h
Cmax (individual subjects): 30.409 ng/mL and 21.586 ng/mL and 13.021 ng/mL and 20.877 ng/mL and 9.944 ng/mL and 32.652 ng/mL and 20.426 ng/mL and 33.588 ng/mL and 31.705 ng/mL and 26.988 ng/mL and 14.549 ng/mL and 26.492 ng/mL and 30.4 ng/mL and 21.6 ng/mL and 13.0 ng/mL and 20.9 ng/mL and 9.9 ng/mL and 32.7 ng/mL and 20.4 ng/mL and 33.6 ng/mL and 31.7 ng/mL and 27.0 ng/mL and 14.5 ng/mL and 26.5 ng/mL
MRT0-t (individual subjects): 95.36 h and 94.95 h and 95.71 h and 95.46 h and 92.09 h and 90.98 h and 84.46 h and 87.34 h and 83.83 h and 94.91 h and 93.53 h and 94.49 h
MRT0-∞ (individual subjects): 196.38 h and 225.05 h and 182.53 h and 178.20 h and 165.60 h and 151.62 h and 129.66 h and 149.99 h and 143.87 h and 168.40 h and 198.32 h and 178.88 h
Tmax (individual subjects): 6 h and 4 h and 5 h and 3 h
Vz/F (individual subjects): 1042.08 L and 1684.38 L and 1909.99 L and 1224.96 L and 2694.46 L and 929.93 L and 1355.33 L and 1100.32 L and 1104.05 L and 1021.99 L and 2056.61 L and 1181.94 L
t1/2 (individual subjects): 147.04 h and 172.37 h and 120.20 h and 119.29 h and 123.51 h and 109.15 h and 91.31 h and 115.86 h and 115.17 h and 123.85 h and 154.25 h and 134.65 h
λz (individual subjects): 0.005 h⁻¹ and 0.004 h⁻¹ and 0.006 h⁻¹ and 0.008 h⁻¹
AUC0-∞ [1]: 2,844.7 (624.5) (N = 4) h*ng/mL
CL/F [1]: 7.4 (2.0) (N = 4) L/h
Vz/F [1]: 1,122.4 (175.2) (N = 4) L
t1/2 [1]: 107.9 (11.4) (N = 4) h
λz [1]: 0.007 (0.0008) (N = 4) h-1
AUC_%Extrap (mean, all 12 subjects): 22.3 (4.8) % and 22.324%
CL/F (mean, all 12 subjects): 8.0 (2.9) L/h and 7.951 L/h
Cmax (mean, all 12 subjects): 23.5 (8.1) ng/mL and 23.5198 ng/mL
MRT0-t (mean, all 12 subjects): 91.9 (4.4) h and 91.926 h
MRT0-∞ (mean, all 12 subjects): 172.4 (26.7) h and 172.374 h
Tmax (mean, all 12 subjects): 4.5 h
t1/2 (mean, all 12 subjects): 127.2 (21.8) h and 127.221 h
λz (mean, all 12 subjects): 0.006 (0.0009) h-1 and 0.0056 h-1
Tmax (median (range), N=12): 4.5 (3.0–6.0) h
AUC0-t (median, N=12): 2305.872 ng·h/mL
AUC0-∞ (median, N=12): 2981.370 ng·h/mL
AUC_%Extrap (median, N=12): 22.166%
CL/F (median, N=12): 6.709 L/h
Cmax (median, N=12): 24.0390 ng/mL
MRT0-t (median, N=12): 94.010 h
MRT0-∞ (median, N=12): 173.300 h
Vz/F (median, N=12): 1203.452 L
t1/2 (median, N=12): 121.852 h
λz (median, N=12): 0.0057 h⁻¹
half-life (Period 2, GP681 + itraconazole, statistic not stated (discussion)): 107.4 h
increase of AUC0-t in Period 2 compared to Period 1 (arithmetic means): 107%
increase of AUC0-∞ in Period 2 compared to Period 1 (arithmetic means): 153%
increase of Cmax in Period 2 compared to Period 1 (arithmetic means): 22%
AUC0-t Ratio Period 2/Period 1 (individual subjects): 7.8 and 2.8 and 1.7 and 2.2 and 1.8 and 1.4 and 1.9 and 2.0 and 2.1
Cmax Ratio Period 2/Period 1 (individual subjects): 8.0 and 1.7 and 0.8 and 1.8 and 1.3 and 1.6 and 1.1 and 0.6
